Test results taken from patent US20230348477A1, “ORGANIC COMPOUND, LIGHT-EMITTING DEVICE, LIGHT-EMITTING APPARATUS, AND ELECTRONIC DEVICE” (SEMICONDUCTOR ENERGY LABORATORY CO., LTD., priority 2022, published 2023).
≈ marks a conversion by molar mass, not a printed value. Entries after “also recorded” stand apart in the source; their conditions may differ.

Assays:
[1] = Solubility test in water by visual inspection; format: physicochemical; settings: room temperature, one atmosphere; for solubility in water, result in words (visual inspection): about 1.2 mg sample, water added in 10 mL steps (tip compounds)
Protocol: (§1) In this example, the organic compounds synthesized in Examples 1 and 2 are used to explain the solubility of the organic compound of one embodiment of the present invention. The solubility tests of this example were performed at room temperature (RT) at one atmosphere.
(§2) Into a 110 mL sample bottle, 1.21 mg of 2,6tip2Py was put and 10 mL of water was added thereto. This mixture was irradiated with ultrasonic waves for one minute. A precipitated white powder was found by visual inspection for an insoluble residue. After further addition of 10 mL of water and one-minute ultrasonic wave irradiation, a precipitated white powder was found by visual inspection. This procedure was repeated until the dissolution was confirmed by visual inspection.
Into a 110 mL sample bottle, 1.23 mg of 2,7tip2SF was put and 10 mL of water was added thereto. This mixture was irradiated with ultrasonic waves for one minute. A precipitated white powder was found by visual inspection for an insoluble residue. After further addition of 10 mL of water and one-minute ultrasonic wave irradiation, a precipitated pale yellow powder was found by visual inspection. This procedure was repeated until the dissolution was confirmed by visual inspection.
Into a 5 mL sample bottle, 50.2 mg of 1,1′-pyridine-2,6-diyl-bis(1,3,4,6,7,8-hexahydro-2H-pyrimido[1,2-a]pyrimidine) (abbreviation: hpp2Py) having a structure where a hydropyrimidine ring is substituted for the imidazole ring of the guanidine skeleton in 2,6tip2Py, which is an organic compound of one embodiment of the present invention, was put, and 1.0 mL of water was added thereto. The dissolution was found by visual inspection for an insoluble residue.
as §2, with “20” for “110”, “1.16” for “1.21”, “1,1′-(9,9′-spirobi[9H-fluorene]-2,7-diyl)bis(1,3,4,6,7,8-hexahydro-2H-pyrimido[1,2-a]pyrimidine) (abbreviation: 2,7hpp2SF) having a structure where a hydropyrimidine ring is substituted for the imidazole ring of the guanidine skeleton in 2,7tip2SF, which is an organic compound of one embodiment of the present invention,” for “2,6tip2Py”, “put,” for “put”, “0.5” for “10”
The precipitated white powder was found until the total amount of water reached 3.0 mL. After further addition of 0.5 mL of water and ultrasonic wave irradiation, no precipitated white powder was found.

[2] = Solubility test in water by LC/MS; format: physicochemical; settings: room temperature, one atmosphere; for solubility in water, result in words (LC/MS): 1 mg in 1 mL water
Protocol: as §1
In the LC-MS analysis, liquid chromatography (LC) separation was carried out with ACQUITY UPLC manufactured by Waters Corporation, and MS analysis (mass spectrometry) was carried out with Xevo G2 Tof MS manufactured by Waters Corporation. Acquity UPLC BEH C8 (2.1 × 100 mm, 1.7 µm) was used as a column for the LC separation. Acetonitrile was used for Mobile Phase A and a 0.1 % aqueous solution of formic acid was used for Mobile Phase B. The amount of injection of the sample was 5.0 µL. Note that in the analysis, the wavelength of a photodiode array detector was set to 270 nm.
Into a 5 mL sample bottle, 1 mg of 2,6tip2Py was put and 1 mL of chloroform was added thereto. This mixture was irradiated with ultrasonic waves for five minutes. After it was confirmed that the solid was completely dissolved, this solution was diluted by five times with acetonitrile, whereby the concentration of the solution was adjusted to 200 mg/L. This solution was diluted with acetonitrile, whereby a solution with a concentration of 40 mg/L, a solution with a concentration of 20 mg/L, and a solution with a concentration of 10 mg/L were prepared. The prepared solutions were subjected to LC/MS, and the peak area values derived from 2,6tip2Py, which were obtained at the respective solution concentrations, were used to form calibration curves.
Into a 5 mL sample bottle, 1 mg of 2,6tip2Py was put and 1 mL of water was added thereto. This mixture was irradiated with ultrasonic waves for five minutes. This mixture was filtered through a membrane filter to remove the solid, and the resulting filtrate was diluted by five times with acetonitrile. The obtained solution was subjected to LC/MS.
Into a 5 mL sample bottle, 1 mg of 2,7tip2SF was put and 1 mL of water was added thereto. This mixture was irradiated with ultrasonic waves for five minutes. […]

| SMILES | solubility in water, result in words (visual inspection) [1] | solubility in water, result in words (LC/MS) [2] | solubility at 5 min ([2]; thermodynamic from solid, filtrate quantified by LC/MS against calibration curve, read-out: solubility in 1 mL of water) [µg/mL] | weight dissolved in 1.0 mL of water ([1]; ultrasonic irradiation, visual inspection, per 1.0 mL of water) |
| --- | --- | --- | --- | --- |
| c1cc(N2CCCn3ccnc32)nc(N2CCCn3ccnc32)c1 [2,6tip2Py, 8,8′-pyridine-2,6-diyl-bis(5,6,7,8-tetrahydroimidazo[1,2-a]pyrimidine)] | precipitated white powder was found until the total amount of water reached 100 mL | very low solubility in water | 18 (≈ 56 µM) |  |
| c1ccc2c(c1)-c1ccccc1C21c2cc(N3CCCN4CCCN=C43)ccc2-c2ccc(N3CCCN4CCCN=C43)cc21 [2,7hpp2SF, 1,1′-(9,9′-spirobi[9H-fluorene]-2,7-diyl)bis(1,3,4,6,7,8-hexahydro-2H-pyrimido[1,2-a]pyrimidine)] | high solubility in water |  |  |  |
| c1ccc2c(c1)-c1ccccc1C21c2cc(N3CCCn4ccnc43)ccc2-c2ccc(N3CCCn4ccnc43)cc21 [2,7tip2SF, 8,8′-(9,9′-spirobi[9H-fluorene]-2,7-diyl)bls(5,6,7,8-tetrahydrolmidazo[1,2-a]pyrimidine)] | precipitated pale yellow powder was found until the total amount of water reached 100 mL | insoluble in water; also recorded: very low solubility in water |  |  |
| c1cc(N2CCCN3CCCN=C32)nc(N2CCCN3CCCN=C32)c1 [hpp2Py, 1,1′-pyridine-2,6-diyl-bis(1,3,4,6,7,8-hexahydro-2H-pyrimido[1,2-a]pyrimidine)] | high solubility in water |  |  | greater than or equal to 50.2 mg |
